# Source: ChEMBL document CHEMBL1641567, “Oxidative inactivation of the lymphoid tyrosine phosphatase mediated by both general and active site directed NO donors” (Bioorg Med Chem Lett, 2011)
# pKi: −log10 of the molar value. Activity calls are given as the source filed them. The calls are words filed in the database; no cut-off is given here. Starred links: 1 amine or outer side, 2 acyl side, 3 side chain; linkers in the order of their positions; H or OH if unused. Non-standard residues stand in square brackets, D forms with d. Residues, ends and D or L forms follow the SMILES beside them. X1 = O=NSCC[C@H](N[*:1])C(=O)[*:2]
# Tests used:
# [1] = target: T1, Tyrosine-protein phosphatase non-receptor type 22 (Homo sapiens) (UniProt Q9Y2R2); test: (§1) Oxidative inactivation of lymphoid tyrosine phosphatase by DiFMUP assay
# T1 sequence (whole entry): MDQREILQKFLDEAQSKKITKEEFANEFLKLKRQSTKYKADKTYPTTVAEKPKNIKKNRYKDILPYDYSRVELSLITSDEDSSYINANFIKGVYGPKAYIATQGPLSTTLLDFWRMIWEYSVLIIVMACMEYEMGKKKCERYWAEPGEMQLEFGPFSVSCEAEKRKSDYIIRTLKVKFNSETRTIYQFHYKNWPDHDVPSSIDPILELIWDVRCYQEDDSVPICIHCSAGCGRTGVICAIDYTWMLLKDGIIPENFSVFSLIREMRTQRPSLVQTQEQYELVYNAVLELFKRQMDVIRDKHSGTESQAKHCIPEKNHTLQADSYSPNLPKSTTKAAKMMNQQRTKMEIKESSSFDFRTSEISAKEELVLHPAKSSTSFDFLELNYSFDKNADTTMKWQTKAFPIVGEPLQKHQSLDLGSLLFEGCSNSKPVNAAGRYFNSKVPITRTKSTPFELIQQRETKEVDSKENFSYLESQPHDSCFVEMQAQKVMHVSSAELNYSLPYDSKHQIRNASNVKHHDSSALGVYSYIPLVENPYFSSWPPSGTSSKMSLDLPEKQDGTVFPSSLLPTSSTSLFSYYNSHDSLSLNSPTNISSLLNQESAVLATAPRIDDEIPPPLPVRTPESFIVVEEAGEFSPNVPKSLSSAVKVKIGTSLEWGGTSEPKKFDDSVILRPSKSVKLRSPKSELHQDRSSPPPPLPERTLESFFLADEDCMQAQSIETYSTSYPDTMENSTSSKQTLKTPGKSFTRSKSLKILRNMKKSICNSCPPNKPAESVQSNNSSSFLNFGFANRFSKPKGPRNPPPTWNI
# [2] = target: T2, Tyrosine-protein phosphatase non-receptor type 22 (Homo sapiens, UniProt Q9Y2R2); test: as §1
# T2 sequence (Q9Y2R2 whole entry): T1 sequence (whole entry)
# [3] = target: T1, Tyrosine-protein phosphatase non-receptor type 22 (Homo sapiens); test: Oxidative inactivation of lymphoid tyrosine phosphatase by DiFMUP assay in presence of L-cysteine
# [4] = target: T1, Tyrosine-protein phosphatase non-receptor type 22 (Homo sapiens); test: Oxidative inactivation of lymphoid tyrosine phosphatase at 1 to 100 uM by DiFMUP assay; details: TDE = time-dependent effect
# [5] = target: T1, Tyrosine-protein phosphatase non-receptor type 22 (Homo sapiens); test: Oxidative inactivation of lymphoid tyrosine phosphatase assessed as NO release by ESI-MS spectrum
# [6] = target: T1, Tyrosine-protein phosphatase non-receptor type 22 (Homo sapiens); test: Oxidative competitive inactivation of lymphoid tyrosine phosphatase by Lineweaver-Burk plot
structure (smiles),measurement,setting,value
CC[C@H](C)[C@H](NC(=O)[C@H](CC(C)C)NC(=O)[C@H](CCCNC(=N)N)NC(=O)[C@H](C)NC(C)=O)C(=O)N[C@@H](CCC(=O)O)C(=O)N[C@@H](CC(=O)O)C(=O)N[C@@H](CC(N)=O)C(=O)N[C@@H](CCC(=O)O)C(=O)N[C@@H](CCSN=O)C(=O)N[C@H](C(=O)N[C@@H](C)C(=O)N[C@@H](CCCNC(=N)N)C(=O)N[C@@H](CCC(=O)O)C(=O)NCC(N)=O)[C@@H](C)O (Ac-ARLIEDNE[X1]TAREG-NH2),Activity,[1],Dose-dependent effect
same,Kinact,[1],0.0472 min⁻¹
same,pKi,[2],5.15
same,Activity,[3],inactive
same,Activity,[4],tde
same,Activity,[5],Active
same,Activity,[6],Active
